Experimental data from paper PMC9120017, “Inhibition mechanism of the chloride channel TMEM16A by the pore blocker 1PBC” (Nature Communications, 2022).
Where two headings read alike, the source gives them in different places.

Target: T1, mouse TMEM16A mutant T539A (Mus musculus, UniProt Q8BHY3, T539A)
T1 construct: expressed in transfected cells; host or cells: HEK293T
T1 sequence (Q8BHY3 1-960 T539A): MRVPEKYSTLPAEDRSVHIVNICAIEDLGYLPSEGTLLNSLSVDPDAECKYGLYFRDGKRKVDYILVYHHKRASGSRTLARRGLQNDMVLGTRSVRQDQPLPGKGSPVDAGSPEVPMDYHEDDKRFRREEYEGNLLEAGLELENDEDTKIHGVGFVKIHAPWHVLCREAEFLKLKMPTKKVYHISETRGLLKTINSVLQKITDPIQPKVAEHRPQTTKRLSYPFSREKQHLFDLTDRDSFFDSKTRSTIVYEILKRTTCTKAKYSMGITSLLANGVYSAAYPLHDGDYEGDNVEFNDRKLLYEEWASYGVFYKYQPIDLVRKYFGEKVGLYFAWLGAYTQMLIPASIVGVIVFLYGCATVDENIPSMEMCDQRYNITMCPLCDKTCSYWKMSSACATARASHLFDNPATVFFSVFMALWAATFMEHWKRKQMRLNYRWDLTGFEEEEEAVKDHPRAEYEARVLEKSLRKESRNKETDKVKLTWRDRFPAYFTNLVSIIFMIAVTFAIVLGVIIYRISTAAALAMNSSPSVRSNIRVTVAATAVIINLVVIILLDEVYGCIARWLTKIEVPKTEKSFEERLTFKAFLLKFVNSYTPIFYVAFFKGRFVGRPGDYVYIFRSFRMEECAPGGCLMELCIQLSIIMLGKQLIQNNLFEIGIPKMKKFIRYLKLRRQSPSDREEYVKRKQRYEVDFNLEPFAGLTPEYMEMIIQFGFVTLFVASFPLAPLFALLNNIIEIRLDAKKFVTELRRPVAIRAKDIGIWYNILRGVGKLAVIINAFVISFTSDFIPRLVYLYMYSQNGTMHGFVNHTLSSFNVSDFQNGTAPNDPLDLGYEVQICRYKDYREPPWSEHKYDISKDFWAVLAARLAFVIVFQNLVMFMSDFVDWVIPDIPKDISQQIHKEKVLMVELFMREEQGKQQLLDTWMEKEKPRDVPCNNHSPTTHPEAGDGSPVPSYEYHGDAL
Test: Inside-out patch recording of 1PBC block, mutant T539A
Format: cell-based
Conditions: for remaining activity at 100 µM: 100 µM 1PBC
Method: HEK293T cells (ATCC CRL-1573) were maintained in Dulbecco’s modified Eagle’s medium (DMEM; Sigma-Aldrich) supplemented with 10 U ml^−1 penicillin, 0.1 mg ml^−1 streptomycin (Sigma-Aldrich), 2 mM L-glutamine (Sigma-Aldrich), and 10% FBS (Sigma-Aldrich) in a humidified atmosphere containing 5% CO2 at 37 °C. HEK293S GnTI^− cells (ATCC CRL-3022) were maintained in HyClone HyCell TransFx-H medium (GE Healthcare) supplemented with 10 U ml^−1 penicillin, 0.1 mg ml^−1 streptomycin, 4 mM L-glutamine, 0.15% poloxamer 188 (Sigma-Aldrich), and 1% FBS in an atmosphere containing 5% CO2 at 185 rpm at 37 °C. The ac splice variant of mouse TMEM16A (UniProt ID: Q8BHY3), mouse TMEM16B (UniProt ID: Q8CFW1), or mouse TMEM16F (UniProt ID: Q6P9J9) bearing a 3C cleavage site, a Venus YFP, a Myc tag, and a Streptavidin-binding peptide (SBP) downstream of the open reading frame in a modified pcDNA3.1 vector (Invitrogen) were used as described previously[21],[31]. Mutations were introduced using a modified QuikChange method[58] and were verified by sequencing.
HEK293T cells were transfected with 3–4 μg DNA per 6 cm Petri dish using the calcium phosphate co-precipitation method and were used within 24–96 h after transfection. Recordings were performed on inside-out patches excised from HEK293T cells expressing the construct of interest. Patch pipettes were pulled from borosilicate glass capillaries (O.D. 1.5 mm, I.D. 0.86 mm, Sutter Instrument) and were fire-polished with a microforge (Narishige) before use. Pipette resistance was typically 3–8 MΩ when filled with the recording solutions detailed below. Seal resistance was typically 4 GΩ or higher. Voltage-clamp recordings were made using Axopatch 200B, Digidata 1550, and Clampex 10.7 (Molecular Devices). Analog signals were filtered with the in-built 4-pole Bessel filter at 10 kHz and were digitized at 20 kHz. Solution exchange was achieved using a gravity-fed system through a theta glass pipette mounted on an ultra-fast piezo-driven stepper (Siskiyou). […] All recordings were performed at 20 °C.
A symmetrical ionic condition was used throughout. Stock solution with Ca^2+-EGTA contained 150 mM NaCl, 5.99 mM Ca(OH)2, 5 mM EGTA, and 10 mM HEPES at pH 7.40. Stock solution with EGTA contained 150 mM NaCl, 5 mM EGTA, and 10 mM HEPES at pH 7.40. Free Ca^2+ concentrations were adjusted by mixing the stock solutions at the required ratios calculated using the WEBMAXC program (http://web.stanford.edu/~cpatton/webmaxcS.htm). Patch pipettes were filled with the stock solution with Ca^2+-EGTA, which has a free Ca^2+ concentration of 1 mM. 1PBC (ChemBridge) stock was reconstituted in anhydrous DMSO (Sigma-Aldrich) at 100 mM and stored at −20 °C. Working solutions with 1PBC were prepared by serial dilution. Unless otherwise stated, experiments were performed at a saturating Ca^2+ concentration as shown in Supplementary Table 1 and the primary data were corrected for current rundown as described previously[21],[25].
Concentration-response relations, obtained from the ratio of the I-V plots before and after the application of the blocker, were fitted to the Hill equation,1 I/Imax=1/1+IC50/[blocker]^h where I/Imax is the normalized current responses, IC50 defines the concentration at which inhibition is at its half-maximum, and h is the Hill coefficient.

IC50 (0 mV, 2 µM Ca2+): 14.9 µM
remaining activity at 3 µM (3 µM 1PBC, +80 mV, saturating Ca2+ (2 µM), read-out: I/Imax): 77.1%
remaining activity at 3 µM (3 µM 1PBC, -80 mV, saturating Ca2+ (2 µM), read-out: I/Imax): 91.4%
remaining activity at 10 µM (10 µM 1PBC, +80 mV, saturating Ca2+ (2 µM), read-out: I/Imax): 45.4%
remaining activity at 10 µM (10 µM 1PBC, -80 mV, saturating Ca2+ (2 µM), read-out: I/Imax): 71.2%
remaining activity at 30 µM (30 µM 1PBC, +80 mV, saturating Ca2+ (2 µM), read-out: I/Imax): 23.5%
remaining activity at 30 µM (30 µM 1PBC, -80 mV, saturating Ca2+ (2 µM), read-out: I/Imax): 49.4%
remaining activity at 100 µM (+80 mV, saturating Ca2+ (2 µM), read-out: I/Imax): 8.95%
remaining activity at 100 µM (-80 mV, saturating Ca2+ (2 µM), read-out: I/Imax): 25%
remaining activity at 3 µM (1PBC 3, 0 mV, read-out: fraction of unblocked current): 85.3%
remaining activity at 3 µM (1PBC 3, 20 mV, read-out: fraction of unblocked current): 83.3%
remaining activity at 3 µM (1PBC 3, 40 mV, read-out: fraction of unblocked current): 80.1%
remaining activity at 3 µM (1PBC 3, 60 mV, read-out: fraction of unblocked current): 78.3%
remaining activity at 3 µM (1PBC 3, 80 mV, read-out: fraction of unblocked current): 77.1%
remaining activity at 3 µM (1PBC 3, 100 mV, read-out: fraction of unblocked current): 77.2%
remaining activity at 3 µM (1PBC 3, 120 mV, read-out: fraction of unblocked current): 77.7%
remaining activity at 3 µM (1PBC 3, 140 mV, read-out: fraction of unblocked current): 79.8%
remaining activity at 3 µM (1PBC 3, -20 mV, read-out: fraction of unblocked current): 87.2%
remaining activity at 3 µM (1PBC 3, -40 mV, read-out: fraction of unblocked current): 88.4%
remaining activity at 3 µM (1PBC 3, -60 mV, read-out: fraction of unblocked current): 90%
remaining activity at 3 µM (1PBC 3, -80 mV, read-out: fraction of unblocked current): 91.4%
remaining activity at 3 µM (1PBC 3, -100 mV, read-out: fraction of unblocked current): 92.2%
remaining activity at 3 µM (1PBC 3, -120 mV, read-out: fraction of unblocked current): 93.2%
remaining activity at 3 µM (1PBC 3, -140 mV, read-out: fraction of unblocked current): 93.5%
remaining activity at 10 µM (1PBC 10, 0 mV, read-out: fraction of unblocked current): 56.5%
remaining activity at 10 µM (1PBC 10, 20 mV, read-out: fraction of unblocked current): 53.9%
remaining activity at 10 µM (1PBC 10, 40 mV, read-out: fraction of unblocked current): 50.2%
remaining activity at 10 µM (1PBC 10, 60 mV, read-out: fraction of unblocked current): 47.6%
remaining activity at 10 µM (1PBC 10, 80 mV, read-out: fraction of unblocked current): 45.4%
remaining activity at 10 µM (1PBC 10, 100 mV, read-out: fraction of unblocked current): 44.7%
remaining activity at 10 µM (1PBC 10, 120 mV, read-out: fraction of unblocked current): 45.3%
remaining activity at 10 µM (1PBC 10, 140 mV, read-out: fraction of unblocked current): 47%
remaining activity at 10 µM (1PBC 10, -20 mV, read-out: fraction of unblocked current): 59.1%
remaining activity at 10 µM (1PBC 10, -40 mV, read-out: fraction of unblocked current): 63.7%
remaining activity at 10 µM (1PBC 10, -60 mV, read-out: fraction of unblocked current): 67.6%
remaining activity at 10 µM (1PBC 10, -80 mV, read-out: fraction of unblocked current): 71.2%
remaining activity at 10 µM (1PBC 10, -100 mV, read-out: fraction of unblocked current): 73.9%
remaining activity at 10 µM (1PBC 10, -120 mV, read-out: fraction of unblocked current): 76.5%
remaining activity at 10 µM (1PBC 10, -140 mV, read-out: fraction of unblocked current): 78.6%
remaining activity at 30 µM (1PBC 30, 0 mV, read-out: fraction of unblocked current): 34.9%
remaining activity at 30 µM (1PBC 30, 20 mV, read-out: fraction of unblocked current): 31%
remaining activity at 30 µM (1PBC 30, 40 mV, read-out: fraction of unblocked current): 27.7%
remaining activity at 30 µM (1PBC 30, 60 mV, read-out: fraction of unblocked current): 25.4%
remaining activity at 30 µM (1PBC 30, 80 mV, read-out: fraction of unblocked current): 23.5%
remaining activity at 30 µM (1PBC 30, 100 mV, read-out: fraction of unblocked current): 22.5%
remaining activity at 30 µM (1PBC 30, 120 mV, read-out: fraction of unblocked current): 21.8%
remaining activity at 30 µM (1PBC 30, 140 mV, read-out: fraction of unblocked current): 22.4%
remaining activity at 30 µM (1PBC 30, -20 mV, read-out: fraction of unblocked current): 38.8%
remaining activity at 30 µM (1PBC 30, -40 mV, read-out: fraction of unblocked current): 42.4%
Structure (SMILES): N#Cc1c(C(F)(F)F)cc(O)n2c1nc1ccccc12 [1PBC]
